Assay results as given in patent US20160333063A1, “SOLUBLE HIGH MOLECULAR WEIGHT (HMW) TAU SPECIES AND APPLICATIONS THEREOF” (THE GENERAL HOSPITAL CORPORATION, priority 2013, published 2016).
Where a SMILES comes first, the peptide text is derived from it. The star is where a group is joined. Cbz = O=C(OCc1ccccc1)*; CH2F = FC*

What was measured:
Type in all cases: cell-based, mouse
GFP transfected neurons = test: Spine density of GFP transfected neurons
Experimental: Analysis of spine density and spine morphology. Cultured neurons plated in 35 mm glass-bottomed dishes (MatTek) were transfected with green fluorescent protein (GFP) (Clontech) at 7 DIV and imaged at 15 DIV. High-resolution digital images were taken using a Zeiss LSM510 confocal microscope with a 25× water-immersion objective lens (digital zoom=3-5), and excitation laser at 488 nm. Images were analyzed with NeuronStudio software (CNIC, Mount Sinai School of Medicine). Spine density was defined as the number of spines per micrometer of dendrite length according previously published protocols (Wu et al., 2010) with modifications. Dendritic spine densities were calculated from 30 to 40 neurons per condition across four separate culture experiments. For each condition, measurements of spine densities were averaged per neuron; the means from multiple neurons were then averaged to obtain the mean±s.e.m. for the population of neurons.

caspase 9 = test: Western blot of cleaved caspase 9 in treated primary cortical neurons; conditions: TgCM treated cultures, inhibitor or Aβ immunodepletion
Experimental: (§1) Treatment of neuronal cultures. Wild-type (from CD1 mice), Tau−/−, Tau+/−, and Tau+/+ cortical neurons were cultured in standard NB/B27 serum-free medium, and, at 14 DIV, the medium was replaced with diluted 1:3 CM from TgCM, corresponding to 4 nM of Aβ, or WtCM (0.16 nM of murine Aβ40) and further incubated for 24 hrs. To induce apoptosis, cultures were treated with staurosporine (Enzo Life Sciences) at a final concentration of 1 μM and were harvested 4 hours after treatment. In zVAD-FMK (Sigma Aldrich) experiments, 20 μM of the inhibitor was applied to cultures 20 minutes prior to exposure to WtCM, TgCM, or STS. To inhibit calcineurin, 1 μM FK506 (Enzo Life Sciences) was applied 20 minutes prior to exposure to WtCM, TgCM or STS. Media was then aspirated and RIPA buffer with phosphatase and protease inhibitors was added to each well. Cells were scraped to prepare lysates for Western blots.
(§2) Western Blot. Protein lysates were boiled in sample buffer consisting of LDS Sample Buffer and reducing Agent, resolved on 4%-12% Bis-Tris polyacrylamide precast gels in a MES-SDS running buffer containing antioxidant. For most analyses, 20 μg/lane were loaded. Gels were transferred onto nitrocellulose membranes (Whatman) in transfer buffer containing 20% methanol. […]

[1] = test system: tau cleaved at Asp421 (TauC3); test: Western blot of tau cleaved at Asp421 in treated primary cortical neurons
Experimental: as §1, §2

BAD = test: Western blot of phosphorylated BAD in treated primary cortical neurons; conditions: TgCM treated cultures, inhibitor or Aβ immunodepletion
Experimental: as §1, §2

PSD95 = test: Western blot of PSD95; conditions: co-treated with inhibitor
Experimental: as §1, §2

caspase 3 = test: Western blot of cleaved caspase 3 in treated primary cortical neurons
Experimental: as §1
Western Blot. Protein lysates were boiled in sample buffer consisting of LDS Sample Buffer and reducing Agent, resolved on 4%-12% Bis-Tris polyacrylamide precast gels in a MES-SDS running buffer containing antioxidant. For most analyses, 20 μg/lane were loaded. Gels were transferred onto nitrocellulose membranes (Whatman) in transfer buffer containing 20% methanol. Blots were blocked in Odyssey blocking buffer (Li-Cor biosciences), followed by incubation with primary antibodies: mouse β-actin (Sigma; 1:10,000); rabbit cleaved caspase 3 (Cell Signaling; 1:1,000); rabbit caspase 3 (Cell Signaling; 1:1,000); mouse TauC3 (courtesy of Dr Lester Binder, 1:300); rabbit polyclonal Total Tau (Dako; 1:10,000), rabbit PSD95 (1:1,000; Cell Signaling), rabbit cleaved caspase 9 (1:1,000; Cell Signaling), mouse caspase 9 (1:1,000; Cell Signaling), rabbit pBAD (1:1,000; Cell Signaling), rabbit BAD (1:1,000; Cell Signaling), VDAC (1:1,000; Cell Signaling), mouse cytochrome c (1:1,000; BD Pharmingen), mouse BAX (1:1,000; Santa Cruz), rabbit cleaved PARP (1:1,000; Cell Signaling), rabbit PARP (1:1,000; Cell Signaling). […]

cytochrome c = test: Western blot of cytochrome c in cytosolic fraction and mitochondrial pellet; conditions: TgCM treated cultures plus inhibitor
Experimental: as §1
Mitochondria Isolations. Mitochondria were isolated from neurons plated in 10 cm dishes treated with WtCM and TgCM and purified by centrifugation as previously described (Ofengeim et al., 2012). […] The protein concentration was determined by BCA assay (Thermo Scientific) in all fractions and this concentration used for loading gels for western blot analysis. […]

[2] = test system: primary neuronal cultures; test: ToxiLight BioAssay for cell death
Experimental: ToxiLight BioAssay. Toxicity assays were conducted in medium collected from wild-type, Tau+/− and Tau−/− neurons plated in 96 well plates at 15 DIV using the ToxiLight BioAssay kit (Lonza, Rockland, Me.). Preparation of cell extracts and the cytotoxicity assay were performed according to manufacturer protocols. After centrifugation, 50 μl samples per well were transferred on an opaque white microtitre plate. To each well, 100 μl of the adenylate kinase detection reagent was added and the plate was incubated for 5 min at room temperature. After 5 min, luminescence was measured in the Wallac plate reader. Results are expressed as arbitrary relative light units (AU). To achieve 100% cell lysis (positive control) neurons were treated with 10% triton-X-100. […] Neurons for Toxilight assays were plated in 96 well plates using 3 wells per condition in duplicate across four separate culture experiments.

[3] = test system: poly (ADP-ribose) polymerase (PARP); test: Western blot of cleaved PARP; conditions: TgCM 24 hrs; STS 6 hours
Experimental: as §1, with “To induce apoptosis, cultures were treated with staurosporine (Enzo Life Sciences) at a final concentration of 1 μM and were harvested 4 hours after treatment.” left out
as §2

[4] = STS 1 μM plus caspase inhibition
[5] = TgCM (4 nM Aβ) 24 hrs, inhibitor applied 20 minutes prior

## COC(=O)C[C@H](NC(=O)[C@H](C)NC(=O)[C@@H](NC(=O)OCc1ccccc1)C(C)C)C(=O)CF [zVAD-FMK] (Cbz-Val-Ala-Asp(OMe)-CH2F)
GFP transfected neurons; TgCM treated neurons plus inhibitor
  spine loss triggered by TgCM: fully blocked the spine loss
GFP transfected neurons; WtCM plus inhibitor
  spine density in WtCM exposed neurons: significant increase in spine density
Caspase 9
  Aβ-induced caspase 9 activation: blocked
[1]; [4]
  tau cleavage in STS treated cells: reduced tau cleavage
[1]; [5]
  TauC3 levels / tau cleavage in TgCM exposed neurons: no increase
BAD
  TgCM-induced dephosphorylation of BAD: did not prevent dephosphorylation of BAD
PSD95
  PSD95 levels in neurons exposed to TgCM: preserved
Caspase 3; [4]
  caspase 3 activation in STS treated cells: reduced activation of caspase 3
Caspase 3; [5]
  caspase 3 activation in TgCM exposed neurons: no increase
Cytochrome c
  levels of cytochrome c in the cytosol or mitochondrial pellet: did not alter levels of cytochrome c
[2]; STS plus inhibitor
  STS-induced cell death: blocked

## C=CC[C@@H]1/C=C(\C)C[C@H](C)C[C@H](OC)[C@H]2O[C@@](O)(C(=O)C(=O)N3CCCC[C@H]3C(=O)O[C@H](/C(C)=C/[C@@H]3CC[C@@H](O)[C@H](OC)C3)[C@H](C)[C@@H](O)CC1=O)[C@H](C)C[C@@H]2OC [FK506]
Caspase 3; WtCM plus inhibitor
  caspase 3 activation, tau cleavage, caspase 9 activation and BAD dephosphorylation in WtCM treated cultures: no effect

## CN[C@@H]1C[C@H]2O[C@@](C)([C@@H]1OC)n1c3ccccc3c3c4c(c5c6ccccc6n2c5c31)C(=O)NC4 [STS, staurosporine]
[3]
  cleaved PARP: induced PARP cleavage
[2]; compared to control
  cell death (release of adenylate kinase): cell death was induced
